In ChEMBL document CHEMBL1134159, “Sulfonylated aminothiazoles as new small molecule inhibitors of protein phosphatases” (Bioorg Med Chem Lett, 2001):
pIC50, pKi: −log10 of the molar value.

How the values were obtained:
[1] = target: T1, M-phase inducer phosphatase 2 (Homo sapiens, UniProt P30305); test: In vitro inhibitory activity against human recombinant Cdc25B phosphatase enzyme
T1 sequence (P30305 whole entry): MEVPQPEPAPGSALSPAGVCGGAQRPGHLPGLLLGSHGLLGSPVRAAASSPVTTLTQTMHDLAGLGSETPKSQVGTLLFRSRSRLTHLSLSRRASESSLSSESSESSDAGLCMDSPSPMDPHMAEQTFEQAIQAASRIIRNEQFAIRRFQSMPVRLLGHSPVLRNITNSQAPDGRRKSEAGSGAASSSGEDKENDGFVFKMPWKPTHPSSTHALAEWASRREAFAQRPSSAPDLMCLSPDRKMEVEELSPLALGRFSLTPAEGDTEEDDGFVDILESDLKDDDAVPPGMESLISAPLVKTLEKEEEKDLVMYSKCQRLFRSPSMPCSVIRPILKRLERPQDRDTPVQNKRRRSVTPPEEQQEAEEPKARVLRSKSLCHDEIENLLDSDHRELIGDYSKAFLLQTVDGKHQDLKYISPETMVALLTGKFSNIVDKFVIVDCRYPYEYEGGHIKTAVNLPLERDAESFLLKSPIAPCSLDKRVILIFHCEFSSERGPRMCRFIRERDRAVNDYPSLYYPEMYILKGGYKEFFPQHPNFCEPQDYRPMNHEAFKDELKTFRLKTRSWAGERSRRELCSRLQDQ

[2] = target: T2, Tyrosine-protein phosphatase non-receptor type 1 (Homo sapiens, UniProt P18031); test: In vitro inhibitory activity against human recombinant PTP1B phosphatase enzyme
T2 sequence (P18031 whole entry): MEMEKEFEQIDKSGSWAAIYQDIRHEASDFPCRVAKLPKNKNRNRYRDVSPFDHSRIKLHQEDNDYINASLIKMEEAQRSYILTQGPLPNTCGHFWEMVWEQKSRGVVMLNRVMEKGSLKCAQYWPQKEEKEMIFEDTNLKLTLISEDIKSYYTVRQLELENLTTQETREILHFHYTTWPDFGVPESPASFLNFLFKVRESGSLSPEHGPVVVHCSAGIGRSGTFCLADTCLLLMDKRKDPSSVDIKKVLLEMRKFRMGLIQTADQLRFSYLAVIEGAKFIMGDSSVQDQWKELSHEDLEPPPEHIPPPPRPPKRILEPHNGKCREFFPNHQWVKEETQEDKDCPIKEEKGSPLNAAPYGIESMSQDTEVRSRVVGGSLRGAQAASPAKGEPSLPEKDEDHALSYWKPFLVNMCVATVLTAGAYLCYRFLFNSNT

[3] = target: T3, Dual specificity protein phosphatase 3 (Homo sapiens, UniProt P51452); test: In vitro inhibitory activity against human recombinant VHR phosphatase enzyme
T3 sequence (P51452 whole entry): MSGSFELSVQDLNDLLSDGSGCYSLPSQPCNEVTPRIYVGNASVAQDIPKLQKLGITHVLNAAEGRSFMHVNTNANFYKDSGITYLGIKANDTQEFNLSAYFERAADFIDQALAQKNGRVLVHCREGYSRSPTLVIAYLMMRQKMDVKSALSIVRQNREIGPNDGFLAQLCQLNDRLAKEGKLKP

[4] = target: T1, M-phase inducer phosphatase 2; test: Inhibitory activity against human recombinant Cdc25B phosphatase enzyme
[5] = target: T1, M-phase inducer phosphatase 2; test: In vitro inhibitory activity against human recombinant Cell division cycle 25B
[6] = target: T3, Dual specificity protein phosphatase 3; test: In vitro inhibitory activity against human recombinant Dual specificity protein phosphatase 3 enzyme
[7] = target: T2, Tyrosine-protein phosphatase non-receptor type 1; test: In vitro inhibitory activity against human recombinant Protein-tyrosine phosphatase 1B

pIC50 [1]	pIC50 [2]	pIC50 [3]	pKi [4]	pIC50 [5]	pIC50 [6]	pIC50 [7]	Compound
< 4.00	< 4.00	< 4.00					CCc1sc(NS(=O)(=O)/C=C/c2ccc(S(C)(=O)=O)cc2)nc1-c1ccccc1
4.16	4.01	4.47					CCCc1sc(NS(=O)(=O)/C=C/c2ccc3ccccc3c2)nc1-c1ccc2ccccc2c1
4.47	4.49	4.32					CCCc1sc(NS(=O)(=O)/C=C/c2ccc(C)cc2)nc1-c1ccc(Cl)cc1
4.66	4.35	4.52	4.44				O=S(=O)(/C=C/c1ccc2ccccc2c1)Nc1nc(-c2ccccc2)c(-c2ccccc2)s1
< 4.00	< 4.00	< 4.00					CCc1sc(NS(=O)(=O)/C=C/c2ccccc2Cl)nc1-c1ccccc1
4.12	4.24	4.49					N#Cc1ccc(/C=C/S(=O)(=O)Nc2nc(-c3ccccc3)c(-c3ccccc3)s2)cc1
< 4.00	< 4.00	< 4.00					CCCCCCCCCCc1sc(NS(=O)(=O)/C=C/c2ccccc2Cl)nc1-c1ccccc1
4.15	4.05	4.47					O=S(=O)(/C=C/c1ccc(-c2ccccc2)cc1)Nc1nc(-c2ccccc2)c(-c2ccccc2)s1
4.04	< 4.00	4.38					CCCc1sc(NS(=O)(=O)/C=C/c2ccc(C(F)(F)F)cc2)nc1-c1ccc(-c2ccccc2)cc1
< 4.00	< 4.00	< 4.00					COc1ccc(/C=C/S(=O)(=O)Nc2nc(-c3ccccc3)c(-c3ccccc3)s2)cc1OC
4.48	4.31	4.62					CCCCCCCCC/C=C/S(=O)(=O)Nc1nc(-c2ccccc2)c(-c2ccccc2)s1
< 4.00	< 4.00	< 4.00					Cc1ccc(/C=C/S(=O)(=O)Nc2nc(-c3ccccc3)c(-c3ccccc3)s2)cc1
< 4.00	< 4.00	4.24					CCCc1sc(NS(=O)(=O)/C=C/c2ccc3ccccc3c2)nc1-c1ccc(-c2ccccc2)cc1
4.85	5.00	4.60					CCCc1sc(NS(=O)(=O)/C=C/c2ccccc2Cl)nc1-c1ccc(C(F)(F)F)cc1
4.27	4.24	4.33					O=[N+]([O-])c1ccc(/C=C/S(=O)(=O)Nc2nc(-c3ccccc3)c(-c3ccccc3)s2)cc1
4.59	4.62	4.49	5.34				CCCc1sc(NS(=O)(=O)/C=C/c2ccccc2Cl)nc1-c1ccc(Cl)cc1
4.70	4.70	4.51					CCCc1sc(NS(=O)(=O)/C=C/c2ccc(C)cc2)nc1-c1ccc(C(F)(F)F)cc1
4.06	4.08	4.30					CCc1sc(NS(=O)(=O)/C=C/c2ccc([N+](=O)[O-])cc2)nc1-c1ccccc1

pIC50 [1]	pIC50 [2]	pIC50 [3]	pKi [4]	pIC50 [5]	pIC50 [6]	pIC50 [7]	Compound
4.34	4.24	4.68					CCCc1sc(NS(=O)(=O)/C=C/c2ccc(C)cc2)nc1-c1ccc(-c2ccccc2)cc1
4.47	4.44	4.60					O=S(=O)(/C=C/c1ccc(C(F)(F)F)cc1)Nc1nc(-c2ccccc2)c(-c2ccccc2)s1
4.14	4.07	4.48					O=S(=O)(/C=C/c1ccc(F)c(F)c1)Nc1nc(-c2ccccc2)c(-c2ccccc2)s1
4.10	< 4.00	4.27					CCCCc1ccc(/C=C/S(=O)(=O)Nc2nc(-c3ccc(-c4ccccc4)cc3)c(CCC)s2)cc1
4.60	4.54	4.51					CCCc1sc(NS(=O)(=O)/C=C/c2ccc(F)c(F)c2)nc1-c1ccc(C(F)(F)F)cc1
< 4.00	< 4.00	< 4.00					Cc1sc(NS(=O)(=O)/C=C/c2ccccc2Cl)nc1-c1ccc(Cl)cc1
4.48	4.29	4.37					Cc1sc(NS(=O)(=O)/C=C/c2ccc(F)c(F)c2)nc1-c1ccc(Cl)cc1
< 4.00	< 4.00	4.09					CCCc1sc(NS(=O)(=O)/C=C/c2ccccc2Cl)nc1-c1ccc(-c2ccccc2)cc1
4.42	4.46	4.57					CCCc1sc(NS(=O)(=O)/C=C/c2ccc(-c3ccccc3)cc2)nc1-c1ccc(Cl)cc1
4.68	4.70	4.70					CCCc1sc(NS(=O)(=O)/C=C/c2ccc(F)c(F)c2)nc1-c1ccc(Cl)cc1
< 4.00	< 4.00	< 4.00					O=S(=O)(/C=C/c1ccco1)Nc1nc(-c2ccccc2)c(-c2ccccc2)s1
4.05	< 4.00	< 4.00					O=S(=O)(/C=C/c1ccccc1Cl)Nc1nc(-c2ccc(Cl)cc2)cs1
				4.40	4.66	4.11	CCCc1sc(NS(=O)(=O)/C=C/c2ccc(F)c(F)c2)nc1-c1ccc(-c2ccccc2)cc1
4.05	< 4.00	4.49					CCc1sc(NS(=O)(=O)/C=C/c2ccc3ccccc3c2)nc1-c1ccccc1
4.59	4.23	4.70					COC(=O)c1ccc(/C=C/S(=O)(=O)Nc2nc(-c3ccccc3)c(-c3ccccc3)s2)cc1
4.24	< 4.00	4.41					CCCCc1ccc(/C=C/S(=O)(=O)Nc2nc(-c3ccccc3)c(-c3ccccc3)s2)cc1
4.59	4.42	4.40					O=S(=O)(/C=C/c1ccccc1Cl)Nc1nc(-c2ccccc2)c(-c2ccccc2)s1
